Results from US11091447B2, “UBE2K modulators and methods for their use” (Berg LLC, priority 2020, dated 2021).

Key:
K-562 tumor grafts = experiment: Tumor growth inhibition in K-562 murine xenograft model; type: in vivo, Mouse (Mus musculus); details: bid., p.o., K-562 xenograft, SCID Bg mice
Procedure: K-562 cancer cell line sourced from American Type Culture Collection (ATCC), USA. Cells were grown in IMDM medium (Sigma, Cat #30-2005) supplemented with 10% FBS (Invitrogen, Cat #10438-026), and 1% penicillin streptomycin (Invitrogen, Cat #15140-122). To establish xenograft, the cells were harvested by trypsinization when they reach around 70 to 80% confluence and 5 million K-562 cells were suspended in 200 μL of serum-free medium and mixed at 1:1 ratio with matrigel before implanting subcutaneously into the dorsal right flank of SCID Bg mice using a 1 mL BD syringe attached to a 24-gauge needle.
K-562 tumor grafts were measured after 10 days of cell inoculation once they became palpable. When the average tumor volume reached around 85 mm^3, animals were dosed after randomization into different treatment groups keeping tumor volume and number of animals in such a way so that the average tumor volume of each group remained same across the groups.
Compounds were formulated in 0.5% CMC+0.1% Tween 80 and given for 12 consecutive days BID with 8 hour gaps.

MIA PaCa-2 cells = experiment: Cellular viability assay (Cell Titer Fluor); type: cell-based; details: Homo sapiens, MIA PaCa-2, 72 h, 72 hours incubation
Procedure: Cell viability were performed using the Cell Titer Fluor™ Assays (Promega G6080). MIA PaCa-2 cells are grown in DMEM media with 10% FBS, 1% Pen/Strep/Amphotericin B. Cells are trypsinized and counted using the Nexcelom cellometer. 5,000 cells/100 μl are plated per well in Greiner black/clear 96-well plates. Cells should be within 10 passages of stock vial for use in workflow. Three distinct lineages of these cells are cultured in parallel for multiple passages and 5 full plates of each lineage are seeded for one run. Small molecule compounds are provided as 100 mM stock solutions in DMSO. Dilution series plates are prepared using 1:3 dilution to achieve a 7 point concentration on a half log scale. After addition of compounds, cells are incubated 37° C., 5% CO2 for 72 hours.
For each test compound condition, triplicate technical replicates are used. For each reference compound, duplicate technical replicates are used. At the end of the 72-hour incubation, spent media is discarded. Then, 100 μl of GF-AFC diluted in DMEM (serum and phenol red-free) is added at 1:2000 concentration (5 μl/10 ml). Cells are incubated with reaction buffer for 1 h at 37° C. Fluorescence is then read on the plate reader with excitation wavelength of 390 nm and emission wavelength of 505 nm. All raw data are analyzed on Microsoft Excel 2010 and normalized to the DMSO vehicle control. Relative results are copied into GraphPad Prism for non-linear regression analysis and determination of IC50 and other dose curve parameters (min, max, Hill slope, etc.) using the log (inhibitor) vs. response equation. Values are as follows: A represents an IC50 of <[…], B represents an IC50 of 1 mM to 10 mM, C represents an IC50 of >10 mM.

[1] = tested on: MV.4.11 cell (B myelomonocytic leukemia) line derived xenograft; experiment: Anti-tumor efficacy in MV.4.11 cell line derived xenograft model; type: in vivo; details: MV.4.11 xenograft, nude mice
Procedure: Nude mice were implanted with 5×10^6 cells MV.4.11 cells subcutaneously in the right flank region. Mice were randomized into 3 groups (8 mice each) on day 12 post cells implantation. Vehicle control was administered with formulation of test compound and treatment group was administered with compound 131 at doses 75 and 150 mg/kg orally as a suspension in 0.1% Tween-80+0.5% CMC (carboxymethyl cellulose) twice daily (b.i.d) for 24 days. Tumor measurements and body weight were recorded thrice weekly during the study period till study completion (day 24).

Compound | % Tumor Growth Inhibition (TGI) on day 3 (K-562 tumor grafts; 75 mg/kg/dose) | % Tumor Growth Inhibition (TGI) on day 5 (K-562 tumor grafts; 75 mg/kg/dose) | % Tumor Growth Inhibition (TGI) on day 8 (K-562 tumor grafts; 75 mg/kg/dose) | % Tumor Growth Inhibition (TGI) on day 10 (K-562 tumor grafts; 75 mg/kg/dose) | % Tumor Growth Inhibition (TGI) on day 12 (K-562 tumor grafts; 75 mg/kg/dose) | % Tumor Growth Inhibition (TGI) on day 3 (K-562 tumor grafts; 200 mg/kg/dose) | % Tumor Growth Inhibition (TGI) on day 5 (K-562 tumor grafts; 200 mg/kg/dose) | % Tumor Growth Inhibition (TGI) on day 8 (K-562 tumor grafts; 200 mg/kg/dose) | % Tumor Growth Inhibition (TGI) on day 10 (K-562 tumor grafts; 200 mg/kg/dose) | % Tumor Growth Inhibition (TGI) on day 12 (K-562 tumor grafts; 200 mg/kg/dose) | IC50 (MIA PaCa-2 cells) | tumor growth inhibition ([1]; 75 mg/kg orally twice daily (b.i.d) for 24 days) | tumor growth inhibition ([1]; 150 mg/kg orally twice daily (b.i.d) for 24 days) | % Tumor Growth Inhibition (TGI) on day 3 (K-562 tumor grafts; 25 mg/kg/dose) | % Tumor Growth Inhibition (TGI) on day 5 (K-562 tumor grafts; 25 mg/kg/dose) | % Tumor Growth Inhibition (TGI) on day 8 (K-562 tumor grafts; 25 mg/kg/dose) | % Tumor Growth Inhibition (TGI) on day 10 (K-562 tumor grafts; 25 mg/kg/dose) | % Tumor Growth Inhibition (TGI) on day 12 (K-562 tumor grafts; 25 mg/kg/dose)
COc1ccccc1-c1nc(CNC(=O)c2ccccc2OC(F)F)n[nH]1 [Compound 126, 2-(difluoromethoxy)-N-((5-(2-methoxyphenyl)-1H-1,2,4-triazol-3-yl)methyl) benzamide] | 41% | 32% | 27% | 27% | 36% | 55% | 51% | 51% | 43% | 44% | < 1 µM |  |  |  |  |  |  | 
COc1ccc(F)cc1-c1nc(CNC(=O)c2cccc3c2OC(F)(F)O3)n[nH]1 [Compound 131] |  |  |  |  |  |  |  |  |  |  | < 1 µM | 73.6% | 86.3% |  |  |  |  | 
COc1ccc(F)cc1-c1nc(CNC(=O)c2cc(F)ccc2OC(F)(F)F)n[nH]1 [Compound 133] | 47% | 56% | 61% | 60% | 64% |  |  |  |  |  | < 1 µM |  |  | 43% | 37% | 48% | 45% | 43%
